Results published in patent publication US7144893B2, “4-aryl quinols and analogs thereof as therapeutic agents” (Cancer Research Technology Limited, priority 2001, dated 2006).

How the values were obtained:
Test in all cases: cells
Format in all cases: cell-based
[1] = test system: 60 human cancer cell lines; conditions: Homo sapiens; for GI50: mean over NCI 60 cell panel, 48 h drug exposure; for CC50: 60 cell, 48 h, read-out: mean LC50
Protocol: (§1) Compounds were tested for in vitro activity (48 h drug exposure) across 60 human cancer cell lines through the National Cancer Institute (NCI) Developmental Therapies Screening Program (Boyd et al., 1995).

renal sub-panel = conditions: Homo sapiens, 60 cell, read-out: mean LC50 in renal sub-panel
Protocol: as §1

colon sub-panel = conditions: Homo sapiens, SW-620, read-out: mean LC50 in colon sub-panel
Protocol: as §1

| SMILES | GI50 [1] | CC50 [1] | mean LC50 (renal sub-panel) | LC50 (colon sub-panel) |
| --- | --- | --- | --- | --- |
| COC1(c2ccccc2)C=CC(=O)C=C1 [Q16, 4-Methoxy-4-phenyl-2,5-cyclohexadien-1-one] | 25.4 µM |  |  |  |
| CC(=O)OC1(c2ccccc2)C=CC(=O)C=C1 [Q21, 4-acetoxy-4-phenyl-2,5-cyclohexadien-1-one] | 4.79 µM |  |  |  |
| CCSC1CC(=O)CC(SCC)C1(O)c1ccccc1 (stereo not shown) [Q22, 3,5-Di(ethylthio)-4-hydroxy-4-phenylcyclohexan-1-one] | 12.6 µM |  |  |  |
| O=C1CC(Sc2ccccc2)C(O)(c2ccccc2)C(Sc2ccccc2)C1 (stereo not shown) [Q23, 4-Hydroxy-4-phenyl-3,5-di(phenylthio)-cyclohexan-1-one] | 1.82 µM |  |  |  |
| O=C1CC(SCc2ccccc2)C(O)(c2ccccc2)C(SCc2ccccc2)C1 (stereo not shown) [Q24, 4-Hydroxy-4-phenyl-3,5-di[(phenyl)methylthio]-cyclohexan-1-one] | 3.98 µM |  |  |  |
| NC(CCC(=O)NC(CSC1CC(=O)C=CC1(O)c1nc2ccccc2s1)C(=O)NCC(=O)O)C(=O)O (stereo not shown) [Q28, 4-Benzothiazol-2-yl-5-S-glutathionyl-4-hydroxy-cyclohex-2-enone] | 2.19 µM |  |  |  |
| COC1(c2nc3ccccc3s2)C=CC(=NS(=O)(=O)c2ccc(C)cc2)C=C1 (stereo not shown) [Q29, N-[4-methoxy-4-(benzothiazol-2-yl)cyclohexa-2,5-dienylidene]-4-methylbenzenesulphonamide] | 15.5 µM | 83.2 µM | > 100 µM | > 100 µM |
| COC1(c2nc3ccc(C)cc3s2)C=CC(=NS(=O)(=O)c2ccc(C)cc2)C=C1 (stereo not shown) [Q30, N-[4-methoxy-4-(6-methylbenzothiazol-2-yl)cyclohexa-2,5-dienylidene]4-methylbenzenesulphonamide] | 1.2 µM | 19.5 µM | 10.6 µM | 9.92 µM |
| COc1ccc2nc(C3(OC)C=CC(=NS(=O)(=O)c4ccc(C)cc4)C=C3)sc2c1 (stereo not shown) [Q31, N-[4-methoxy-4-(6-methoxybenzothiazol-2-yl)cyclohexa-2,5-dienylidene]-4-methylbenzenesulphonamide] | 1.91 µM | 18.6 µM | 11.2 µM | 13.2 µM |
| COC1(c2nc3ccc(F)cc3s2)C=CC(=NS(=O)(=O)c2ccc(C)cc2)C=C1 (stereo not shown) [Q32, N-[4-methoxy-4-(6-fluorobenzothiazol-2-yl)cyclohexa-2,5-dienylidene]-4-methylbenzenesulphonamide] | 1.74 µM | 30.2 µM | 19.1 µM | 25.6 µM |
| COC1(c2nc3c(F)cccc3s2)C=CC(=NS(=O)(=O)c2ccc(C)cc2)C=C1 (stereo not shown) [Q33, N-[4-methoxy-4-(4-fluorobenzothiazol-2-yl)cyclohexa-2,5-dienylidene]-4-methylbenzenesulphonamide] | 2.57 µM | 27.5 µM | 14.4 µM | 26.9 µM |
| O=C1CCC(O)(c2nc3ccccc3s2)CC1 [Q43, 4-(Benzothiazol-2-yl)-4-hydroxycyclohexanone] | > 100 µM | > 100 µM | > 100 µM | > 100 µM |
| CC1=CC(O)(c2nc3ccccc3s2)C=C(C)C1=O [Q44, 4-(benzothiazol-2-yl)-4-hydroxy-2,6-dimethylcyclohexa-2,5-dien-1-one] | 38.2 µM | > 100 µM | > 100 µM | > 100 µM |
| O=C1/C(=C\c2ccccc2)CC(O)(c2nc3ccccc3s2)C/C1=C/c1ccccc1 (stereo not shown) [Q45, 4-(benzothiazol-2-yl)-2,6-bis(phenylmethinyl)-4-hydroxycyclohexanone] | 2.69 µM | 47.9 µM | 37.2 µM | 17.4 µM |
| O=C1C=CC(O)(c2cc3ccccc3s2)c2ccccc21 (stereo not shown) [Q46, 4-Benzothiophen-2-yl-4-hydroxy-4H-naphth-1-one] | 2.29 µM | 70.8 µM | > 100 µM | > 100 µM |
| O=C1C=CC(O)(c2cc3ccccc3o2)c2ccccc21 (stereo not shown) [Q47, 4-(Benzofuran-2-yl)-4-hydroxy-4H-naphth-1-one] | 0.74 µM | 7.76 µM | 6.48 µM | 7.76 µM |
